Results reported in patent publication US20200046703A1, “COMPOSITIONS AND METHODS FOR TREATMENT OF THE SIDE-EFFECTS ASSOCIATED WITH ADMINISTRATION OF THERAPEUTIC AGENTS” (ASYMMETRIC THERAPEUTICS, LLC, priority 2018, published 2020).
Values after ≈ are worked out from the molar mass of the structure shown.

Legend:
Solubility of oxypurinol = assay type: physicochemical; details: in vitro; in the protective formulation; read-out: maximum in vitro solubility / upper limit of solubility
confluent HPEK cells = experiment: Confluent HPEK cell viability with/without 5-FU; assay type: cell-based, human; details: for relative cell viability (AVG): 120 hours; for Relative Protection against 5-FU toxicity / Relative Growth in the presence of 5-FU: HPEK confluent cells; for Relative Protection against 5-FU toxicity: fraction of viability loss prevented; for Relative Growth in the presence of 5-FU: viability with 5-FU divided by viability without 5-FU
Method: Oxypurinol and allopurinol concentrations of 0.3 mM, 1.0 mM, and 3.0 mM, which are ten times higher than those used in the first set of experiments, were tested. An adenine concentration of 0.3 mM, which was the higher concentration used in the first set of experiments, was tested. The relative viability of the cells was determined after 120 hours.

proliferating HPEK cells = experiment: Proliferating HPEK cell viability with/without 5-FU; assay type: cell-based, human; details: for relative cell viability (AVG): 120 hours; for Relative Protection against 5-FU toxicity / Relative Growth in the presence of 5-FU: HPEK proliferating cells; for Relative Protection against 5-FU toxicity: fraction of viability loss prevented; for Relative Growth in the presence of 5-FU: viability with 5-FU divided by viability without 5-FU
Method: (§1) In another set of experiments, the results of which are shown in Table 2, proliferating HPEK cells, commonly used to assess skin tissue toxicity, were exposed to the clinically-relevant dose of 10 μM of 5-FU and different concentrations of oxypurinol, either alone or with different concentrations of adenine or uracil, using standard tissue culture methods and incubated at 37° C. Oxypurinol concentrations of 0.03 mM, 0.1 mM, and 0.3 mM were tested. Adenine and uracil concentrations of 0.1 mM and 0.3 mM were tested. The relative viability of the cells was determined after 120 hours.

confluent NHEK cells = experiment: Confluent NHEK cell viability with/without 5-FU; assay type: cell-based, human; details: for relative cell viability (AVG): 120 hours; for Relative Protection against 5-FU toxicity: fraction of viability loss prevented
Method: In yet another set of experiments, the results of which are shown in Table 4, confluent NHEK cells were exposed to the clinically-relevant dose of 10 μM of 5-FU and different concentrations of sodium hydroxide, oxypurinol, or allopurinol using standard tissue culture methods and incubated at 37° C. Sodium hydroxide concentrations of 1 mM, 2 mM, 3 mM, and 4 mM were tested. Oxypurinol and allopurinol concentrations of 0.1 mM, 0.3 mM, 1.0 mM, and 3.0 mM were tested, both in the presence and in the absence of 10 μM of 5-FU. The relative viability of the cells was determined after 120 hours. The sodium hydroxide trials were only performed to serve as a control.

proliferating HGEP cells = experiment: Proliferating HGEP cell viability with/without 5-FU; assay type: cell-based, human; details: for relative cell viability (AVG): 120 hours
Method: as §1, with “one” for “another”, “1,” for “2,”, “HGEP” for “HPEK”, “oral mucosal” for “skin tissue”

marrow cells = details: about a 30-fold excess; in patients; cited from earlier work
[1] = 0.3 mM, with 5-FU 10 μM, listed as oxypurinol
[2] = 1.0 mM, with 5-FU 10 μM, listed as oxypurinol
[3] = 3.0 mM, with 5-FU 10 μM, listed as oxypurinol
[4] = concentrations of 0.1 mM and 0.3 mM

Q: Which solubility (Solubility of oxypurinol) does the source give for O=c1nc2[nH][nH]cc-2c(=O)[nH]1 [Oxypurinol, oxypurinol] here?
A: ~3000 µM (≈ 456 µg/mL)

Q: What about the “relative cell viability (AVG)” value (confluent HPEK cells; 0.3 mM, no 5-FU) of the same compound?
A: 1.0183

Q: What about the “relative cell viability (AVG)” value (confluent HPEK cells; 0.3 mM, with 5-FU 10 μM) of the same compound?
A: 0.7226

Q: What about the “relative cell viability (AVG)” value (confluent HPEK cells; [1]) of the same compound?
A: 0.72

Q: What about the “relative cell viability (AVG)” value (confluent HPEK cells; 1.0 mM, no 5-FU) of the same compound?
A: 1.0706

Q: And the “relative cell viability (AVG)” value (confluent HPEK cells; 1.0 mM, no 5-FU, listed as oxypurinol)?
A: 1.07

Q: What about the “relative cell viability (AVG)” value (confluent HPEK cells; 1.0 mM, with 5-FU 10 μM) of the same compound?
A: 0.7509

Q: What about the “relative cell viability (AVG)” value (confluent HPEK cells; [2]) of the same compound?
A: 0.75

Q: And the “relative cell viability (AVG)” value (confluent HPEK cells; 3.0 mM, no 5-FU)?
A: 0.8351

Q: And the “relative cell viability (AVG)” value (confluent HPEK cells; 3.0 mM, no 5-FU, listed as oxypurinol)?
A: 0.835

Q: And the “relative cell viability (AVG)” value (confluent HPEK cells; 3.0 mM, with 5-FU 10 μM)?
A: 0.8147

Q: And the “relative cell viability (AVG)” value (confluent HPEK cells; [3])?
A: 0.81

Q: What about the “protection from 5-FU toxicity compared with allopurinol” value (confluent HPEK cells; HPEK cells, FIG. 1, across the range of tested concentrations) of the same compound?
A: significantly better

Q: What about the “Relative Protection against 5-FU toxicity” value (shortened to “Relative Protection”) (confluent HPEK cells; 0.3 mM) of the same compound?
A: 0.2249

Q: And the “Relative Growth in the presence of 5-FU” value (confluent HPEK cells; 0.3 mM)?
A: 0.7096

Q: And the “Relative Protection” value (confluent HPEK cells; 1.0 mM)?
A: 0.3039

Q: And the “Relative Growth in the presence of 5-FU” value (confluent HPEK cells; 1.0 mM)?
A: 0.7013

Q: What about the “Relative Protection” value (confluent HPEK cells; 3.0 mM) of the same compound?
A: 0.4822

Q: What about the “Relative Growth in the presence of 5-FU” value (confluent HPEK cells; 3.0 mM) of the same compound?
A: 0.9755

Q: What about the “oxypurinol toxicity” value (confluent HPEK cells; HPEK, up to about 3 mM) of the same compound?
A: no evidence of oxypurinol toxicity

Q: And the “effect on cell viability in the presence of 5-FU” value (“effect … in the presence of 5-FU” below) (confluent HPEK cells; concentration range of 0.3 mM to 3.0 mM)?
A: protective effect

Q: And the “preservation of growth, with versus without 5-FU” value (confluent HPEK cells; oxypurinol at 3 mM, 5-FU 10 μM)?
A: 97.5%

Q: What about the “relative cell viability (AVG)” value (proliferating HPEK cells; 0.03 mM, no 5-FU) of the same compound?
A: 1.0763

Q: And the “relative cell viability (AVG)” value (proliferating HPEK cells; 0.03 mM, with 5-FU 10 μM)?
A: 0.6903

Q: And the “relative cell viability (AVG)” value (proliferating HPEK cells; 0.1 mM, no 5-FU)?
A: 0.7961

Q: What about the “relative cell viability (AVG)” value (proliferating HPEK cells; 0.1 mM, with 5-FU 10 μM) of the same compound?
A: 0.7961

Q: What about the “relative cell viability (AVG)” value (proliferating HPEK cells; 0.3 mM, no 5-FU) of the same compound?
A: 1.0201

Q: And the “relative cell viability (AVG)” value (proliferating HPEK cells; 0.3 mM, with 5-FU 10 μM)?
A: 0.8635

Q: What about the “Relative Protection” value (proliferating HPEK cells; 0.03 mM) of the same compound?
A: 0.1133

Q: What about the “Relative Growth in the presence of 5-FU” value (proliferating HPEK cells; 0.03 mM) of the same compound?
A: 0.6414

Q: And the “Relative Protection” value (proliferating HPEK cells; 0.1 mM)?
A: 0.4163

Q: And the “Relative Growth in the presence of 5-FU” value (proliferating HPEK cells; 0.1 mM)?
A: 1.0000

Q: What about the “Relative Protection” value (proliferating HPEK cells; 0.3 mM) of the same compound?
A: 0.6092

Q: What about the “Relative Growth in the presence of 5-FU” value (proliferating HPEK cells; 0.3 mM) of the same compound?
A: 0.8465

Q: And the “effect … in the presence of 5-FU” value (proliferating HPEK cells; [4])?
A: protective effect

Q: What about the “effect on cell viability in the absence of 5-FU” value (shortened to “effect … in the absence of 5-FU”) (proliferating HPEK cells; range of 0.03 mM to 0.3 mM) of the same compound?
A: minimal effect

Q: What about the “effect … in the presence of 5-FU” value (confluent NHEK cells; 0.1 mM to 3.0 mM) of the same compound?
A: protective effect

Q: What about the “relative cell viability (AVG)” value (confluent NHEK cells; 0.1 mM, no 5-FU) of the same compound?
A: 0.8884

Q: What about the “relative cell viability (AVG)” value (confluent NHEK cells; 0.1 mM, with 5-FU 10 μM) of the same compound?
A: 0.5818

Q: And the “relative cell viability (AVG)” value (confluent NHEK cells; 0.1 mM, with 5-FU 10 μM, listed as oxypurinol)?
A: 0.58

Q: And the “relative cell viability (AVG)” value (confluent NHEK cells; 0.3 mM, no 5-FU)?
A: 0.9059

Q: And the “relative cell viability (AVG)” value (confluent NHEK cells; 0.3 mM, with 5-FU 10 μM)?
A: 0.5881

Q: And the “relative cell viability (AVG)” value (confluent NHEK cells; [1])?
A: 0.59

Q: What about the “relative cell viability (AVG)” value (confluent NHEK cells; 1.0 mM, no 5-FU) of the same compound?
A: 0.9580

Q: And the “relative cell viability (AVG)” value (confluent NHEK cells; 1.0 mM, with 5-FU 10 μM)?
A: 0.5965

Q: What about the “relative cell viability (AVG)” value (confluent NHEK cells; [2]) of the same compound?
A: 0.60

Q: What about the “Relative Growth in the presence of 5-FU” value (confluent NHEK cells; 3.0 mM, NHEK, FIG. 2) of the same compound?
A: over 73%

Q: And the “relative cell viability (AVG)” value (confluent NHEK cells; 3.0 mM, no 5-FU)?
A: 0.9784

Q: What about the “relative cell viability (AVG)” value (confluent NHEK cells; 3.0 mM, with 5-FU 10 μM) of the same compound?
A: 0.7165

Q: What about the “relative cell viability (AVG)” value (confluent NHEK cells; [3]) of the same compound?
A: 0.72

Q: What about the “protection from 5-FU toxicity compared with allopurinol” value (confluent NHEK cells; NHEK cells, FIG. 2, across the range of tested concentrations) of the same compound?
A: significantly better

Q: And the “Relative Protection” value (confluent NHEK cells; NHEK, 0.1 mM)?
A: 0.2834

Q: And the “Relative Growth in the presence of 5-FU” value (confluent NHEK cells; NHEK, 0.1 mM, viability with 5-FU divided by viability without 5-FU)?
A: 0.6549

Q: What about the “Relative Protection” value (confluent NHEK cells; NHEK, 0.3 mM) of the same compound?
A: 0.2941

Q: And the “Relative Growth in the presence of 5-FU” value (confluent NHEK cells; NHEK, 0.3 mM, viability with 5-FU divided by viability without 5-FU)?
A: 0.6492

Q: What about the “Relative Protection” value (confluent NHEK cells; NHEK, 1.0 mM) of the same compound?
A: 0.3085

Q: And the “Relative Growth in the presence of 5-FU” value (confluent NHEK cells; NHEK, 1.0 mM, viability with 5-FU divided by viability without 5-FU)?
A: 0.6226

Q: What about the “Relative Protection” value (confluent NHEK cells; NHEK, 3.0 mM) of the same compound?
A: 0.5142

Q: And the “Relative Growth in the presence of 5-FU” value (confluent NHEK cells; NHEK, 3.0 mM, viability with 5-FU divided by viability without 5-FU)?
A: 0.7323

Q: And the “oxypurinol toxicity” value (confluent NHEK cells; NHEK, up to about 3 mM)?
A: no evidence of oxypurinol toxicity

Q: And the “effect … in the absence of 5-FU” value (confluent NHEK cells; range of 0.1 mM to 3.0 mM)?
A: small negative effect

Q: What about the “relative cell viability (AVG)” value (proliferating HGEP cells; 0.03 mM, no 5-FU) of the same compound?
A: 0.8792

Q: And the “relative cell viability (AVG)” value (proliferating HGEP cells; 0.03 mM, with 5-FU 10 μM)?
A: 0.6441

Q: And the “relative cell viability (AVG)” value (proliferating HGEP cells; 0.1 mM, no 5-FU)?
A: 0.7134

Q: And the “relative cell viability (AVG)” value (proliferating HGEP cells; 0.1 mM, with 5-FU 10 μM)?
A: 0.7540

Q: And the “relative cell viability (AVG)” value (proliferating HGEP cells; 0.3 mM, no 5-FU)?
A: 0.6367

Q: What about the “relative cell viability (AVG)” value (proliferating HGEP cells; 0.3 mM, with 5-FU 10 μM) of the same compound?
A: 0.8925

Q: And the “effect … in the absence of 5-FU” value (proliferating HGEP cells; 0.03 to 0.3 mM)?
A: negative effect

Q: What about the “effect … in the presence of 5-FU” value (proliferating HGEP cells; [4]) of the same compound?
A: protective effect

Q: What about the “protection of marrow cells from 5-FU toxicity” value (marrow cells) of the same compound?
A: completely protect marrow cells from 5-FU toxicity

Q: With O=c1cc[nH]c(=O)[nH]1 [Uracil, uracil, reference compound] as the compound, how does the “relative cell viability (AVG)” value (confluent HPEK cells; 0.3 mM, no 5-FU) read?
A: 1.3781

Q: And the “relative cell viability (AVG)” value (confluent HPEK cells; 0.3 mM, with 5-FU 10 μM)?
A: 0.6482

Q: What about the “relative cell viability (AVG)” value (proliferating HPEK cells; 0.1 mM, with 5-FU 10 μM) of the same compound?
A: 0.6479

Q: What about the “relative cell viability (AVG)” value (proliferating HPEK cells; 0.3 mM, with 5-FU 10 μM) of the same compound?
A: 0.6350

Q: And the “relative cell viability (AVG)” value (proliferating HGEP cells; 0.1 mM, with 5-FU 10 μM)?
A: 0.6060

Q: And the “relative cell viability (AVG)” value (proliferating HGEP cells; 0.3 mM, with 5-FU 10 μM)?
A: 0.5182
